Laboratory results from ChEMBL document CHEMBL5442219.

Columns and labels:
Conditions in all cases: Compound concentration 10 µM
[1] = target: T1, Alpha-1A adrenergic receptor (Homo sapiens) (UniProt P35348)
T1 sequence (whole entry): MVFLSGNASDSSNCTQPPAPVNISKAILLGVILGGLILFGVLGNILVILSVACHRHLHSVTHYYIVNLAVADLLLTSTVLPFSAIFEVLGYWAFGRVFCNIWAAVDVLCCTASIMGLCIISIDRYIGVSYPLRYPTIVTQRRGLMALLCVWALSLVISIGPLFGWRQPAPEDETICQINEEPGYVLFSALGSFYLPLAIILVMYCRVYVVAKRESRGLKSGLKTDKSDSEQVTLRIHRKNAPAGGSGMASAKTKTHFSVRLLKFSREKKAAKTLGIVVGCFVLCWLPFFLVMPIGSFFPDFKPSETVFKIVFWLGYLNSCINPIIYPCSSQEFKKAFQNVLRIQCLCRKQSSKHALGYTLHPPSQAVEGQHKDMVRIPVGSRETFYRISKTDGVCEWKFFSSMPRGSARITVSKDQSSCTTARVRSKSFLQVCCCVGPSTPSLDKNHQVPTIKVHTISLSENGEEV
Description: PDSP Primary Binding target: ADRA1A - Compounds are tested at 10 uM concentration, plate are incubated at room temperature in the dark for 90 minutes. Reaction are stopped by vacuum filtration onto 0.3% polyethyleneimine soaked filter mats using Filtermate harvester. Scintilation cocktail is then melted onto microwave-dried filters on a hot plate and the radio activity is counted in Microbia counter.

[2] = target: T2, Muscarinic acetylcholine receptor M1 (Homo sapiens) (UniProt P11229)
T2 sequence (whole entry): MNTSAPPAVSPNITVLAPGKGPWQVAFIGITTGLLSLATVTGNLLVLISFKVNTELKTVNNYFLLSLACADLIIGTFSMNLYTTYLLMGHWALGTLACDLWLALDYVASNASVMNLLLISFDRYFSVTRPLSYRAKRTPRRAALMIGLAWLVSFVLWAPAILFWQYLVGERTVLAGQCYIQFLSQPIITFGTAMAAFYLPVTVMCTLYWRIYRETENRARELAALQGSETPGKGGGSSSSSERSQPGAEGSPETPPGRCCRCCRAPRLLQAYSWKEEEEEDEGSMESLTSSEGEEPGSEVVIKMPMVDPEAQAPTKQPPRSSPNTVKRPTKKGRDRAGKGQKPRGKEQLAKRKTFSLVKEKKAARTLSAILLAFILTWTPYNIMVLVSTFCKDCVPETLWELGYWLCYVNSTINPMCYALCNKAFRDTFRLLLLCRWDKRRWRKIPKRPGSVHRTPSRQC
Description: PDSP Primary Binding target: CHRM1 - Compounds are tested at 10 uM concentration, plate are incubated at room temperature in the dark for 90 minutes. Reaction are stopped by vacuum filtration onto 0.3% polyethyleneimine soaked filter mats using Filtermate harvester. Scintilation cocktail is then melted onto microwave-dried filters on a hot plate and the radio activity is counted in Microbia counter.

[3] = target: D(1A) dopamine receptor (Homo sapiens) (UniProt P21728)
Description: PDSP Primary Binding target: DRD1 - Compounds are tested at 10 uM concentration, plate are incubated at room temperature in the dark for 90 minutes. Reaction are stopped by vacuum filtration onto 0.3% polyethyleneimine soaked filter mats using Filtermate harvester. Scintilation cocktail is then melted onto microwave-dried filters on a hot plate and the radio activity is counted in Microbia counter.

[4] = target: D(2) dopamine receptor (Homo sapiens) (UniProt P14416)
Sequence of D(2) dopamine receptor (Homo sapiens) (P14416 whole entry): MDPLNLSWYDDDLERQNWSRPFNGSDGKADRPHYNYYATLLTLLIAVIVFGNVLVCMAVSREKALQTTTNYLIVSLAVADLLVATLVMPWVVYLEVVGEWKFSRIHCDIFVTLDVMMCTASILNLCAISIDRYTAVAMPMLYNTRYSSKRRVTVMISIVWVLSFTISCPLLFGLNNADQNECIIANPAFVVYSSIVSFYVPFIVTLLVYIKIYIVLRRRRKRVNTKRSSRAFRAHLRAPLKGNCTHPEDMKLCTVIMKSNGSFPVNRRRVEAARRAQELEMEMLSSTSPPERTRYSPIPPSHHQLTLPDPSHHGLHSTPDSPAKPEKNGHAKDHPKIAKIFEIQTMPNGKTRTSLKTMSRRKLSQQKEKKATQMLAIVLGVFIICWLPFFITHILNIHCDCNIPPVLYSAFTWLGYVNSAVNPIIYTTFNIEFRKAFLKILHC
Description: PDSP Primary Binding target: DRD2 - Compounds are tested at 10 uM concentration, plate are incubated at room temperature in the dark for 90 minutes. Reaction are stopped by vacuum filtration onto 0.3% polyethyleneimine soaked filter mats using Filtermate harvester. Scintilation cocktail is then melted onto microwave-dried filters on a hot plate and the radio activity is counted in Microbia counter.

[5] = target: D(3) dopamine receptor (Homo sapiens) (UniProt P35462)
Sequence of D(3) dopamine receptor (Homo sapiens) (P35462 whole entry): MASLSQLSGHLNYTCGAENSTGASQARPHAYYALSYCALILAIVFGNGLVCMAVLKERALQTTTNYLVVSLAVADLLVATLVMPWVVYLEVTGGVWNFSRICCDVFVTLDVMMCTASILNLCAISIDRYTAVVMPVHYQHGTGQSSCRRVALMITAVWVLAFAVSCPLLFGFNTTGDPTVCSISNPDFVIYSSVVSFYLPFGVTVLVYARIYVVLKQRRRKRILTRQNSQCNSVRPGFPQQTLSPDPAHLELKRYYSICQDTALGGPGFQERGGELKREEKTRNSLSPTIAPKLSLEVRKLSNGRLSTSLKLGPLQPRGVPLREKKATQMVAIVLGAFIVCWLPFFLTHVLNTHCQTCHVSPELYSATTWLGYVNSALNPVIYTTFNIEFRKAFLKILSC
Description: PDSP Primary Binding target: DRD3 - Compounds are tested at 10 uM concentration, plate are incubated at room temperature in the dark for 90 minutes. Reaction are stopped by vacuum filtration onto 0.3% polyethyleneimine soaked filter mats using Filtermate harvester. Scintilation cocktail is then melted onto microwave-dried filters on a hot plate and the radio activity is counted in Microbia counter.

[6] = target: Histamine H3 receptor (Homo sapiens) (UniProt Q9Y5N1)
Sequence of Histamine H3 receptor (Homo sapiens) (Q9Y5N1 whole entry): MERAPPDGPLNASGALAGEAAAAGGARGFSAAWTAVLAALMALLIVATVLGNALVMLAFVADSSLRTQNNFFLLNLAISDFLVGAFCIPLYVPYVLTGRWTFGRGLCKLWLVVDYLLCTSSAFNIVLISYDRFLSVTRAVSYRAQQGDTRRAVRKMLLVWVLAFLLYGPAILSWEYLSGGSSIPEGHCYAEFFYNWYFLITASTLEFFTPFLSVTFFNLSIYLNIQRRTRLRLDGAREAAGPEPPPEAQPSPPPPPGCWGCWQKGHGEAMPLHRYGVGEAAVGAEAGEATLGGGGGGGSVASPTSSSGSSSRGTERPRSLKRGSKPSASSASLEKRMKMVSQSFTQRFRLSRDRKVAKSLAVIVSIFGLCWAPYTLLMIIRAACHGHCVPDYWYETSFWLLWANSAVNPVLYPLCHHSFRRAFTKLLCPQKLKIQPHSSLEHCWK
Description: PDSP Primary Binding target: HRH3 - Compounds are tested at 10 uM concentration, plate are incubated at room temperature in the dark for 90 minutes. Reaction are stopped by vacuum filtration onto 0.3% polyethyleneimine soaked filter mats using Filtermate harvester. Scintilation cocktail is then melted onto microwave-dried filters on a hot plate and the radio activity is counted in Microbia counter.

[7] = target: T3, 5-hydroxytryptamine receptor 1A (Homo sapiens) (UniProt P08908)
T3 sequence (whole entry): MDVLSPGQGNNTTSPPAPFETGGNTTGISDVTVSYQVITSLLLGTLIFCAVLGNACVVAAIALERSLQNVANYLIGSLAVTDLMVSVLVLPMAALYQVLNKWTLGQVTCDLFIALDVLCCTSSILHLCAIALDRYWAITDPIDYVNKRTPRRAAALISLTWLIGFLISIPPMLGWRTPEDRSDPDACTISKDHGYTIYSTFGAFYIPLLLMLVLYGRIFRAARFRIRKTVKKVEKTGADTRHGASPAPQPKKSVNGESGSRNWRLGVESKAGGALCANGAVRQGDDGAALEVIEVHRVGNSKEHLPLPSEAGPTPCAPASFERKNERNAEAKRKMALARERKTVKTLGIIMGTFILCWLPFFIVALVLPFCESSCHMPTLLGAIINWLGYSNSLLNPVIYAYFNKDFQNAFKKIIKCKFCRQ
Description: PDSP Primary Binding target: HTR1A - Compounds are tested at 10 uM concentration, plate are incubated at room temperature in the dark for 90 minutes. Reaction are stopped by vacuum filtration onto 0.3% polyethyleneimine soaked filter mats using Filtermate harvester. Scintilation cocktail is then melted onto microwave-dried filters on a hot plate and the radio activity is counted in Microbia counter.

[8] = target: 5-hydroxytryptamine receptor 1D (Homo sapiens) (UniProt P28221)
Description: PDSP Primary Binding target: HTR1D - Compounds are tested at 10 uM concentration, plate are incubated at room temperature in the dark for 90 minutes. Reaction are stopped by vacuum filtration onto 0.3% polyethyleneimine soaked filter mats using Filtermate harvester. Scintilation cocktail is then melted onto microwave-dried filters on a hot plate and the radio activity is counted in Microbia counter.

[9] = target: 5-hydroxytryptamine receptor 1E (Homo sapiens) (UniProt P28566)
Sequence of 5-hydroxytryptamine receptor 1E (Homo sapiens) (P28566 whole entry): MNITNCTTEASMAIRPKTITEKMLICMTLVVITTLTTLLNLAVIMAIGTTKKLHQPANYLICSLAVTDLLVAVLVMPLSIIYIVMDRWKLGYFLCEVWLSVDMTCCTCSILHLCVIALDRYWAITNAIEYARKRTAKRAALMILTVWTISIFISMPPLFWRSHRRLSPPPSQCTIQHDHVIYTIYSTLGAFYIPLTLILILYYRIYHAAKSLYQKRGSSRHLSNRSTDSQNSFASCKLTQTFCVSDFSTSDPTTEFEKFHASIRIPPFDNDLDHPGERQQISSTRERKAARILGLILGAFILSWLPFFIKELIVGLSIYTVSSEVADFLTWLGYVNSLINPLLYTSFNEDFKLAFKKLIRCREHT
Description: PDSP Primary Binding target: HTR1E - Compounds are tested at 10 uM concentration, plate are incubated at room temperature in the dark for 90 minutes. Reaction are stopped by vacuum filtration onto 0.3% polyethyleneimine soaked filter mats using Filtermate harvester. Scintilation cocktail is then melted onto microwave-dried filters on a hot plate and the radio activity is counted in Microbia counter.

[10] = target: 5-hydroxytryptamine receptor 2A (Homo sapiens) (UniProt P28223)
Sequence of 5-hydroxytryptamine receptor 2A (Homo sapiens) (P28223 whole entry): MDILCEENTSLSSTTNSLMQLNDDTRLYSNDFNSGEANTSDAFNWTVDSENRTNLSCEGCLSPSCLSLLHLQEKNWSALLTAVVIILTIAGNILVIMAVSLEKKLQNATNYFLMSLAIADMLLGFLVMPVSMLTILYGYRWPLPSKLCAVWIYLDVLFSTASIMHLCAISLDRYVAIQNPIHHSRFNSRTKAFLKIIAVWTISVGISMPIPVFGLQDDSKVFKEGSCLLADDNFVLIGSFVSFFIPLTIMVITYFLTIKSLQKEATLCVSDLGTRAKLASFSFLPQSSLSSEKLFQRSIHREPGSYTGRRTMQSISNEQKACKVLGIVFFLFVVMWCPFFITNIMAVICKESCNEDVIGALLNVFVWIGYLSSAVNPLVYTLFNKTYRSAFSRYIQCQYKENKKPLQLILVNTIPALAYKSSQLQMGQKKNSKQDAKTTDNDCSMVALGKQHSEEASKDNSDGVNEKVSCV
Description: PDSP Primary Binding target: HTR2A - Compounds are tested at 10 uM concentration, plate are incubated at room temperature in the dark for 90 minutes. Reaction are stopped by vacuum filtration onto 0.3% polyethyleneimine soaked filter mats using Filtermate harvester. Scintilation cocktail is then melted onto microwave-dried filters on a hot plate and the radio activity is counted in Microbia counter.

[11] = target: 5-hydroxytryptamine receptor 2B (Homo sapiens) (UniProt P41595)
Sequence of 5-hydroxytryptamine receptor 2B (Homo sapiens) (P41595 whole entry): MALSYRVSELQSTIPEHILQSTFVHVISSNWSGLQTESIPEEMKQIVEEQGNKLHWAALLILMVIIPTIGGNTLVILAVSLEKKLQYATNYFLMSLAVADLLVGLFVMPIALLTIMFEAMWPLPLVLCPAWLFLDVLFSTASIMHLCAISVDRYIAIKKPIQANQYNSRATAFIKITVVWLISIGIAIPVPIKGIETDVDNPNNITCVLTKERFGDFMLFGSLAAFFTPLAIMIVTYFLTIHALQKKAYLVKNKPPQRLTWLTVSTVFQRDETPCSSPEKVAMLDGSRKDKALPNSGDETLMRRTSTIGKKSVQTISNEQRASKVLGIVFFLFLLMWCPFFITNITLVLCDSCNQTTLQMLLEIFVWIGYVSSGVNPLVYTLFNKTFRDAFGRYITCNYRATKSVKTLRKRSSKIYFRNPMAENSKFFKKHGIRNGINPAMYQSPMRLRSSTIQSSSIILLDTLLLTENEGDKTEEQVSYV
Description: PDSP Primary Binding target: HTR2B - Compounds are tested at 10 uM concentration, plate are incubated at room temperature in the dark for 90 minutes. Reaction are stopped by vacuum filtration onto 0.3% polyethyleneimine soaked filter mats using Filtermate harvester. Scintilation cocktail is then melted onto microwave-dried filters on a hot plate and the radio activity is counted in Microbia counter.

[12] = target: T4, 5-hydroxytryptamine receptor 2C (Homo sapiens) (UniProt P28335)
T4 sequence (whole entry): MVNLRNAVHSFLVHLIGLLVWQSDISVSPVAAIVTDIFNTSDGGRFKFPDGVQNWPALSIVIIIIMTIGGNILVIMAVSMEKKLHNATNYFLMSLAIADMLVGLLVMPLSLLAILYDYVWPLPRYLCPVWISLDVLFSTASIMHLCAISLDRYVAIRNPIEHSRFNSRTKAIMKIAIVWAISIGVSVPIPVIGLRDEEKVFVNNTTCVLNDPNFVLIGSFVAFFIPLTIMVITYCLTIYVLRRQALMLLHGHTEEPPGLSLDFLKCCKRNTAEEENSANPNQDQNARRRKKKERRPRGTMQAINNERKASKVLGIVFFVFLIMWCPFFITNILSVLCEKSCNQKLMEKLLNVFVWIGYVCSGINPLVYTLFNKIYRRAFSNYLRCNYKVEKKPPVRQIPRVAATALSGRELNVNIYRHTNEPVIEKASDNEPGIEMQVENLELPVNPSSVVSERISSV
Description: PDSP Primary Binding target: HTR2C - Compounds are tested at 10 uM concentration, plate are incubated at room temperature in the dark for 90 minutes. Reaction are stopped by vacuum filtration onto 0.3% polyethyleneimine soaked filter mats using Filtermate harvester. Scintilation cocktail is then melted onto microwave-dried filters on a hot plate and the radio activity is counted in Microbia counter.

[13] = target: 5-hydroxytryptamine receptor 5A (Homo sapiens) (UniProt P47898)
Sequence of 5-hydroxytryptamine receptor 5A (Homo sapiens) (P47898 whole entry): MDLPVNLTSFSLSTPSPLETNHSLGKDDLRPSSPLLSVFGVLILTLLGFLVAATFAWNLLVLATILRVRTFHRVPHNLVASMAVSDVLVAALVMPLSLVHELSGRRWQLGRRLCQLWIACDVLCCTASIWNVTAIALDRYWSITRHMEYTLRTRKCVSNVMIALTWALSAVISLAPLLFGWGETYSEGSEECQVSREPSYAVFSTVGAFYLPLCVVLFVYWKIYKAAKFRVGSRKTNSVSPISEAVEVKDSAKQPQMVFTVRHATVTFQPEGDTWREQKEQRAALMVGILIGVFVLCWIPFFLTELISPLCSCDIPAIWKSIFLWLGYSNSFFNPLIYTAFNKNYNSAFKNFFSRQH
Description: PDSP Primary Binding target: HTR5A - Compounds are tested at 10 uM concentration, plate are incubated at room temperature in the dark for 90 minutes. Reaction are stopped by vacuum filtration onto 0.3% polyethyleneimine soaked filter mats using Filtermate harvester. Scintilation cocktail is then melted onto microwave-dried filters on a hot plate and the radio activity is counted in Microbia counter.

[14] = target: 5-hydroxytryptamine receptor 7 (Homo sapiens) (UniProt P34969)
Sequence of 5-hydroxytryptamine receptor 7 (Homo sapiens) (P34969 whole entry): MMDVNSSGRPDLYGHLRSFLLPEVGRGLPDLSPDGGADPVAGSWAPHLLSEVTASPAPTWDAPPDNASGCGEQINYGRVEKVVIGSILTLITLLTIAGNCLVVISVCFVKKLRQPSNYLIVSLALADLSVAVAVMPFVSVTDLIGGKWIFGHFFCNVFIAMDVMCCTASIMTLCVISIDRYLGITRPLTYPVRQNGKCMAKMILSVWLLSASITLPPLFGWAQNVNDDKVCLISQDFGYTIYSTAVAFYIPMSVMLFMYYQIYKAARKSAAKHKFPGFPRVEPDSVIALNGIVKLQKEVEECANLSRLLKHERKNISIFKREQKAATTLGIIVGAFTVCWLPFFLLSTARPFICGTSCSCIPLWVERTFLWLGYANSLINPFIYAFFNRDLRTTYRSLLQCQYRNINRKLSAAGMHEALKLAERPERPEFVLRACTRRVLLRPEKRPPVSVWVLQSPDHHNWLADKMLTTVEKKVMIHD
Description: PDSP Primary Binding target: HTR7 - Compounds are tested at 10 uM concentration, plate are incubated at room temperature in the dark for 90 minutes. Reaction are stopped by vacuum filtration onto 0.3% polyethyleneimine soaked filter mats using Filtermate harvester. Scintilation cocktail is then melted onto microwave-dried filters on a hot plate and the radio activity is counted in Microbia counter.

[15] = target: Mu-type opioid receptor (Homo sapiens) (UniProt P35372)
Sequence of Mu-type opioid receptor (Homo sapiens) (P35372 whole entry): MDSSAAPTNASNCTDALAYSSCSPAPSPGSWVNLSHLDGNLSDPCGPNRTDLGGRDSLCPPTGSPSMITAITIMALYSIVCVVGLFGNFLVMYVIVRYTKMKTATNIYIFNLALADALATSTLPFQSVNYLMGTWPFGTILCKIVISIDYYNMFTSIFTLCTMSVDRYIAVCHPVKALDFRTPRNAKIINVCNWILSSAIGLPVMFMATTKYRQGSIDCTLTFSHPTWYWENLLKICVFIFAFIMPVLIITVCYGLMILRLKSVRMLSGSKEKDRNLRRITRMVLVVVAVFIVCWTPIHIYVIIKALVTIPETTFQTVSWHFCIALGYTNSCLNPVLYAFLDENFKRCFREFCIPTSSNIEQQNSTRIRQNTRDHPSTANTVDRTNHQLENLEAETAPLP
Description: PDSP Primary Binding target: OPRM1 - Compounds are tested at 10 uM concentration, plate are incubated at room temperature in the dark for 90 minutes. Reaction are stopped by vacuum filtration onto 0.3% polyethyleneimine soaked filter mats using Filtermate harvester. Scintilation cocktail is then melted onto microwave-dried filters on a hot plate and the radio activity is counted in Microbia counter.

[16] = target: Sigma non-opioid intracellular receptor 1 (Homo sapiens) (UniProt Q99720)
Sequence of Sigma non-opioid intracellular receptor 1 (Homo sapiens) (Q99720 whole entry): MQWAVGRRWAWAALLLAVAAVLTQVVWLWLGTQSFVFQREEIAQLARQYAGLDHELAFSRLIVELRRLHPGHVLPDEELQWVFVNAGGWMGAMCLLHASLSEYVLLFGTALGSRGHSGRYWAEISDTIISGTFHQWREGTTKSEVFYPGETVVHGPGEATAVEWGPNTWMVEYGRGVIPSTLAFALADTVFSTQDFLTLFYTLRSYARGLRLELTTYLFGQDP
Description: PDSP Primary Binding target: SIGMAR1 - Compounds are tested at 10 uM concentration, plate are incubated at room temperature in the dark for 90 minutes. Reaction are stopped by vacuum filtration onto 0.3% polyethyleneimine soaked filter mats using Filtermate harvester. Scintilation cocktail is then melted onto microwave-dried filters on a hot plate and the radio activity is counted in Microbia counter.

[17] = target: Sodium-dependent dopamine transporter (Homo sapiens) (UniProt Q01959)
Description: PDSP Primary Binding target: SLC6A3 - Compounds are tested at 10 uM concentration, plate are incubated at room temperature in the dark for 90 minutes. Reaction are stopped by vacuum filtration onto 0.3% polyethyleneimine soaked filter mats using Filtermate harvester. Scintilation cocktail is then melted onto microwave-dried filters on a hot plate and the radio activity is counted in Microbia counter.

[18] = target: Sodium-dependent serotonin transporter (Homo sapiens) (UniProt P31645)
Sequence of Sodium-dependent serotonin transporter (Homo sapiens) (P31645 whole entry, looked up): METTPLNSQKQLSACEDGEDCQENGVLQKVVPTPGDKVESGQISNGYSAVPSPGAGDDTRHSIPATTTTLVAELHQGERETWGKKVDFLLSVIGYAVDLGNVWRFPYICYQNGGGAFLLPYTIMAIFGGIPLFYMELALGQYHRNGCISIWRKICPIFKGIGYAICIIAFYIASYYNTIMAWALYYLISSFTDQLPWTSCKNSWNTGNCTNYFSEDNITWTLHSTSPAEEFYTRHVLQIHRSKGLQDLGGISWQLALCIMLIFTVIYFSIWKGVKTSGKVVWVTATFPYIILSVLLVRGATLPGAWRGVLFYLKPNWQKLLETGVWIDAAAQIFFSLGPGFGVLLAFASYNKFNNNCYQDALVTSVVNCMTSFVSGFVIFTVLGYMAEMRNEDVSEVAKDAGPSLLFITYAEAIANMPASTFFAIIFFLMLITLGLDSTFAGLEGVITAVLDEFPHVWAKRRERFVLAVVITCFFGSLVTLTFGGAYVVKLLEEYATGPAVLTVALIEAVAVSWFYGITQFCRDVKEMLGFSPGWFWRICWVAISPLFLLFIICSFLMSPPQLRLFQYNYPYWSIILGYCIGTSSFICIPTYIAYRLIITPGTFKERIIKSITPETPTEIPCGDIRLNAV
Description: PDSP Primary Binding target: SLC6A4 - Compounds are tested at 10 uM concentration, plate are incubated at room temperature in the dark for 90 minutes. Reaction are stopped by vacuum filtration onto 0.3% polyethyleneimine soaked filter mats using Filtermate harvester. Scintilation cocktail is then melted onto microwave-dried filters on a hot plate and the radio activity is counted in Microbia counter.

[19] = target: Sigma intracellular receptor 2 (Homo sapiens) (UniProt Q5BJF2)
Sequence of Sigma intracellular receptor 2 (Homo sapiens) (Q5BJF2 whole entry): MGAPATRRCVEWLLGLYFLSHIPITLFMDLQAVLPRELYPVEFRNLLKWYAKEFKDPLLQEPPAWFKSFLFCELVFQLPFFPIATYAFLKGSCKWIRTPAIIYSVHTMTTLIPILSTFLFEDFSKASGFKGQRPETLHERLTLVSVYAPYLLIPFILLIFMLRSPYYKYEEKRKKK
Description: PDSP Primary Binding target: TMEM97 - Compounds are tested at 10 uM concentration, plate are incubated at room temperature in the dark for 90 minutes. Reaction are stopped by vacuum filtration onto 0.3% polyethyleneimine soaked filter mats using Filtermate harvester. Scintilation cocktail is then melted onto microwave-dried filters on a hot plate and the radio activity is counted in Microbia counter.

[20] = target: 5-hydroxytryptamine receptor 1B (Homo sapiens) (UniProt P28222)
Description: PDSP Primary Binding target: HTR1B - Compounds are tested at 10 uM concentration, plate are incubated at room temperature in the dark for 90 minutes. Reaction are stopped by vacuum filtration onto 0.3% polyethyleneimine soaked filter mats using Filtermate harvester. Scintilation cocktail is then melted onto microwave-dried filters on a hot plate and the radio activity is counted in Microbia counter.

SMILES | inhibition [1] | inhibition [2] | inhibition [3] | inhibition [4] | inhibition [5] | inhibition [6] | inhibition [7] | inhibition [8] | inhibition [9] | inhibition [10] | inhibition [11] | inhibition [12] | inhibition [13] | inhibition [14] | inhibition [15] | inhibition [16] | inhibition [17] | inhibition [18] | inhibition [19] | inhibition [20]
CS(=O)(=O)NC[C@H]1CC[C@H](Nc2nc3c(s2)CCSc2ccccc2-3)CC1 | -9.44% | -1.96% | 14.1% | 4.83% | 67.2% | -7.45% | 35.6% | 50.8% | 6.22% | 23.7% | 83% | 0.89% | 64.7% | 39.7% | -6.3% | 45.3% | 3.98% | 13.6% | 81.4% | 
Cc1cc(C)cc(-c2cnc3cc(Cl)c(-c4cccc(O)c4)cc3c2OCCCN)c1 | 28.4% | 24.3% |  | 37.3% | 95.9% | 10.6% | 64.1% | 91.8% | 54.4% | 63.2% | 88.6% | 79.8% | 96.4% | 54.9% | 75.9% | 74.9% |  | 48.9% | 94.9% | 88.2%
c1nc(CC2CCNCC2)c[nH]1 | -4.11% | 6.59% | 24.2% | 27.8% | -4.62% | 95.9% | -10% | 9.58% | 9.31% | 20.8% | 30.4% |  | -4.49% | 11.9% | -6.55% | 38.7% | 14.6% | 1.26% | 27.7% | 17.7%
